Patent US9493421B2, “Acridinedione derivatives for treating pigmentation disorders and ageing of the skin” (PIERRE FABRE DERMO-COSMETIQUE, priority 2011, dated 2016)

Tests used:
[1] = Test to study anti-oxidizing capability using chemiluminescence (Photochem Analytic Jena); type: biochemical; conditions: quantity of sample needed for activity equivalent to 1 μg Trolox, superoxide anion trapping
Experimental: This test is used to determine the anti-oxidizing capability of the molecules. It is a method which generates free radicals via photochemical signal. The intensity of oxidation is 1000 times higher than obtained under normal conditions.
Detection is performed using chemiluminescence. This allows evaluation of water-soluble and liposoluble antioxidant molecules or extracts
The results are expressed in equivalent quantity of vitamin C or Trolox (6-hydroxy-2,5,7,8-tetramethylchroman-2-carboxylic acid) respectively. Sensitivity is in the order of one nanomole.
The anti-oxidizing activity studied in this test represents the capability of specifically trapping superoxide anions by chemiluminescence.
The quantified results are expressed in Trolox equivalent (standard) or in “μg of product per 1 μg of Trolox”. This means that a quantity x of sample is needed to obtain activity equivalent to the activity detected with 1 μg of standard. It is the antioxidizing power in relation to a reference; this avoids having to take into account the concentrations tested.
The superoxide radical: O2^∘^− is generated by photochemical reaction: L+hv(UV)+O2→L*O2→L^∘^++O2^∘^− • L*: luminol in the excited state L^∘+: luminol radical Signal Detection
Part of the superoxide anions are inhibited by the antioxidants. The remaining free radicals are quantified by chemiluminescence. L^∘^++O2^∘^−→N2+AP*^2−→AP^2−+hv (luminescence)
AP*^2−: aminophthalate in the excited state

B16-F10 cells = assay: Assay of melanin in B16-F10 cells (colorimetric, α-MSH stimulated); type: cell-based, murine; conditions: 0.1 μM α-MSH
Experimental: It is a test to measure the synthesis of melanin by colorimetric assay on a murine melanoma cell line: line B16-F10. With this test it is possible to evaluate the depigmenting or propigmenting property of active ingredients.
The B16-F10 cells were seeded in 96-well plates in DMEM medium supplemented with FCS (foetal calf serum), and incubated 24 h at 37° C., 5% CO2. The cells were stimulated with 0.1 μM α-MSH (to stimulate melanin synthesis, the observed stimulation being about 150%) and treated 72 h with the active ingredients to be assayed. Each concentration of active ingredient was assayed at least in triplicate. Total melanin and intracellular melanin dissolved in lysis buffer were assayed by absorbance read-off at 405 nm. The total proteins were assayed in the lysate and the results expressed in mg melanin/mg proteins. Percentage activity was calculated as follows: […]
A negative value indicates inhibition of the melanin synthesis and translates depigmenting activity of the compound, whereas a positive value indicates induced melanin synthesis and translates a propigmenting property of the molecule.
• B16-F10 cell lines between P10 and P20 (murine melanocytes) (ATCC, CRL-6475); • reagents: DMEM without Phenol Red (GIBCOBRL, 118800-028), 200 mM glutamax-I supplement (GIBCOBRL, 35050-038), glucose (SIGMA, G7021), PBS (GIBCOBRL, 14190-094), foetal calf serum (Invitrogen, 10270-098), trypsin-EDTA (GIBCOBRL, 25300-054), NaOH (Sigma, S8045-500G), DMSO (Sigma, 471267-11), Nle, Phe-Melanocyte Stimulating Hormone (Sigma, M-8764), melanin (Sigma, M-0418), BCA-COPPER (SIGMA, B9643 and C2284), BSA (SIGMA, P0914) B) Test to Study Anti-Oxidizing Capability Using Chemiluminescence (Photochem Analytic Jena) Principle

[2] = Log P (octanol/water partition coefficient); type: physicochemical
From the text: Log P, also called Log Kow, is a measurement of the differential solubility of chemical compounds in two solvents (octanol/water partition coefficient).
Log P is equal to the logarithm of the ratio of the concentrations of the examined substance in octanol and in water. Log P=Log(Coct/Cwater). With this value it is possible to assess the hydrophilic or hydrophobic (lipophilic) nature of a molecule. If Log P is positive and very high, this means that the molecule under consideration is much more soluble in octanol than in water, which reflects its lipophilic nature, and conversely. A value of Log P=0 means that the molecule is distributed equally between the two phases and Coct=Cwater (C. Hansch, J. F. Quinlan, G. L. Lawrence, Linear free energy relationship between partition coefficients and the aqueous solubility of organic liquids, J. Org. Chem., 33 (1968), 347-350; C. Hansch, A. Leo, Exploring QSAR—Fundamentals and Applications in Chemistry and Biology, American Chemical Society, Washington, 1995; J. Sangster, Octanol—Water Partition Coefficients: Fundamentals and Physical Chemistry, Wiley, Chichester, 1997; W. Jorgensen, E. Duffy, Advanced Drug Delivery Reviews, (54), 2002, 355-366).

[3] = Mus musculus, B16-F10, 72 h, negative = inhibition, positive = stimulation, read-out: Melanin synthesis on B16

| Compound | logP [2] | melting point [°C] | further results |
| --- | --- | --- | --- |
| CN1C2=C(C(=O)CC(C)(C)C2)C(c2ccc(O)c(O)c2)C2=C1CC(C)(C)CC2=O [Example 4, 9-(3,4-dihydroxyphenyl)-3,3,6,6,10-pentamethyl-3,4,6,7,9,10-hexahydroacridine-1,8(2H,5H)-dione] | – | – | μg sample per 1 μg of Trolox [1]: 0.017 μg sample per 1 μg of Trolox |
| CN1C2=C(C(=O)CC(c3ccccc3)C2)C(c2ccc(O)c(O)c2)C2=C1CC(c1ccccc1)CC2=O (stereo not shown) [Example 5, 9-(3,4-dihydroxyphenyl)-10-methyl-3,6-diphenyl-3,4,6,7,9,10-hexahydroacridine-1,8(2H,5H)-dione] | – | – | μg sample per 1 μg of Trolox [1]: 0.05 μg sample per 1 μg of Trolox |
| CCCCCCCCCCN1C2=C(C(=O)CC(c3ccccc3)C2)C(c2ccc(O)c(O)c2)C2=C1CC(c1ccccc1)CC2=O (stereo not shown) [Example 6, 10-decyl-9-(3,4-dihydroxyphenyl)-3,6-diphenyl-3,4,6,7,9,10-hexahydroacridine-1,8(2H,5H)-dione] | – | – | μg sample per 1 μg of Trolox [1]: 0.04 μg sample per 1 μg of Trolox |
| COc1cc(C2C3=C(CC(C)(C)CC3=O)NC3=C2C(=O)CC(C)(C)C3)ccc1O [Example 10, 9-(4-hydroxy-3-methoxyphenyl)-3,3,6,6-tetramethyl-3,4,6,7,9,10-hexahydroacridine-1,8(2H,5H)-dione] | 1.49 | 309.8 | activation at 100 µM (B16-F10 cells; [3]): 29% |
| COc1cc(C2C3=C(CC(C)(C)CC3=O)N(C)C3=C2C(=O)CC(C)(C)C3)ccc1O [Example 11, 9-(4-hydroxy-3-methoxyphenyl)-3,3,6,6,10-pentamethyl-3,4,6,7,9,10-hexahydroacridine-1,8(2H,5H)-dione] | 1.72 | – | activation at 100 µM (B16-F10 cells; [3]): 47% |
| CCN1C2=C(C(=O)CC(C)(C)C2)C(c2ccc(O)c(OC)c2)C2=C1CC(C)(C)CC2=O [Example 12, 10-ethyl-9-(4-hydroxy-3-methoxyphenyl)-3,3,6,6-tetramethyl-3,4,6,7,9,10-hexahydroacridine-1,8(2H,5H)-dione] | 2.06 | – | activation at 50 µM (B16-F10 cells; [3]): 72% |
| CCCN1C2=C(C(=O)CC(C)(C)C2)C(c2ccc(O)c(OC)c2)C2=C1CC(C)(C)CC2=O [Example 13, 9-(4-hydroxy-3-methoxyphenyl)-3,3,6,6-tetramethyl-10-propyl-3,4,6,7,9,10-hexahydroacridine-1,8(2H,5H)-dione] | 2.55 | 259.5 | activation at 50 µM (B16-F10 cells; [3]): 43% |
| CCCCN1C2=C(C(=O)CC(C)(C)C2)C(c2ccc(O)c(OC)c2)C2=C1CC(C)(C)CC2=O [Example 14, 10-butyl-9-(4-hydroxy-3-methoxyphenyl)-3,3,6,6-tetramethyl-3,4,6,7,9,10-hexahydroacridine-1,8(2H,5H)-dione] | 2.97 | – | activation at 20 µM (B16-F10 cells; [3]): 45% |
| CCCCCN1C2=C(C(=O)CC(C)(C)C2)C(c2ccc(O)c(OC)c2)C2=C1CC(C)(C)CC2=O [Example 15, 9-(4-hydroxy-3-methoxyphenyl)-3,3,6,6-tetramethyl-10-pentyl-3,4,6,7,9,10-hexahydroacridine-1,8(2H,5H)-dione] | 3.38 | 194.5 | activation at 50 µM (B16-F10 cells; [3]): 42% |
| CCCCCCN1C2=C(C(=O)CC(C)(C)C2)C(c2ccc(O)c(OC)c2)C2=C1CC(C)(C)CC2=O [Example 16, 10-hexyl-9-(4-hydroxy-3-methoxyphenyl)-3,3,6,6-tetramethyl-3,4,6,7,9,10-hexahydroacridine-1,8(2H,5H)-dione] | 3.8 | 177.7 | – |
| CCCCCCCN1C2=C(C(=O)CC(C)(C)C2)C(c2ccc(O)c(OC)c2)C2=C1CC(C)(C)CC2=O [Example 17, 10-heptyl-9-(4-hydroxy-3-methoxyphenyl)-3,3,6,6-tetramethyl-3,4,6,7,9,10-hexahydroacridine-1,8(2H,5H)-dione] | 4.22 | 154.8 | activation at 20 µM (B16-F10 cells; [3]): -68% |
| CCCCCCCCN1C2=C(C(=O)CC(C)(C)C2)C(c2ccc(O)c(OC)c2)C2=C1CC(C)(C)CC2=O [Example 18, 9-(4-hydroxy-3-methoxyphenyl)-3,3,6,6-tetramethyl-10-octyl-3,4,6,7,9,10-hexahydroacridine-1,8(2H,5H)-dione] | 4.63 | 154.2 | activation at 5 µM (B16-F10 cells; [3]): -59% |
| CCCCCCCCCN1C2=C(C(=O)CC(C)(C)C2)C(c2ccc(O)c(OC)c2)C2=C1CC(C)(C)CC2=O [Example 19, 9-(4-hydroxy-3-methoxyphenyl)-3,3,6,6-tetramethyl-10-nonyl-3,4,6,7,9,10-hexahydroacridine-1,8(2H,5H)-dione] | 5.05 | 127 | activation at 5 µM (B16-F10 cells; [3]): -42% |
| CCCCCCCCCCCN1C2=C(C(=O)CC(C)(C)C2)C(c2ccc(O)c(OC)c2)C2=C1CC(C)(C)CC2=O [Example 20, 9-(4-hydroxy-3-methoxyphenyl)-3,3,6,6-tetramethyl-10-undecyl-3,4,6,7,9,10-hexahydroacridine-1,8(2H,5H)-dione] | 5.89 | 118.9 | activation at 5 µM (B16-F10 cells; [3]): -57% |
| COc1cc(C2C3=C(CC(C)(C)CC3=O)N(Cc3ccccc3)C3=C2C(=O)CC(C)(C)C3)ccc1O [Example 21, 10-benzyl-9-(4-hydroxy-3-methoxyphenyl)-3,3,6,6-tetramethyl-3,4,6,7,9,10-hexahydroacridine-1,8(2H,5H)-dione] | 3.46 | – | activation at 100 µM (B16-F10 cells; [3]): 48% |
| COc1cc(C2C3=C(CC(C)(C)CC3=O)N(CCc3ccccc3)C3=C2C(=O)CC(C)(C)C3)ccc1O [Example 22, 9-(4-hydroxy-3-methoxyphenyl)-3,3,6,6-tetramethyl-10-phenethyl-3,4,6,7,9,10-hexahydroacridine-1,8(2H,5H)-dione] | 3.74 | – | – |
| COc1cc(C2C3=C(CC(C)(C)CC3=O)N(CCCc3ccccc3)C3=C2C(=O)CC(C)(C)C3)ccc1O [Example 23, 9-(4-hydroxy-3-methoxyphenyl)-3,3,6,6-tetramethyl-10-(3-phenylpropyl)-3,4,6,7,9,10-hexahydroacridine-1,8(2H,5H)-dione] | 4.15 | – | activation at 10 µM (B16-F10 cells; Mus musculus, B16-F10, at 10 μM, 72 h, negative = inhibition, positive = stimulation, read-out: Melanin synthesis on B16): -37% |
| COc1cc(C2C3=C(CC(C)(C)CC3=O)N(CC(c3ccccc3)c3ccccc3)C3=C2C(=O)CC(C)(C)C3)ccc1O [Example 24, 10-(2,2-diphenylethyl)-9-(4-hydroxy-3-methoxyphenyl)-3,3,6,6-tetramethyl-3,4,6,7,9,10-hexahydroacridine-1,8(2H,5H)-dione] | 5.32 | – | activation at 5 µM (B16-F10 cells; [3]): -37% |
| Nle, Phe-Melanocyte Stimulating Hormone [α-MSH, reference compound] | – | – | Stimulation of melanin synthesis (B16-F10 cells; B16-F10 cells): about 150% |
